The results in this text go back to ChEMBL document CHEMBL3044861, “Synthesis and Herbicidal Activity of New 2-(1-Carbamoyl-1, 2, 4-triazol-3-ylsulfonyl) alkanoates” (J Pestic Sci, 2002).

For data set [1], the system named is Chenopodium album. Nature of the data set: Herbicidal activity against Chenopodium album assessed as killing at 500 g/ha pre-emergence application upland paddy conditions measured after 14 days. The format is functional.
Data set [2] concerns Digitaria ciliaris. The data set can be described thus: Herbicidal activity against Digitaria ciliaris assessed as killing at 500 g/ha pre-emergence application upland paddy conditions measured after 14 days. The format is functional.
Data set [3] concerns Pontederia vaginalis. Nature of the data set: Herbicidal activity against Monochoria vaginalis assessed as killing at 50 g/ha pre-emergence application under paddy conditions. The format is functional.
The test system of data set [4] is Echinochloa crus-galli. Nature of the data set: Herbicidal activity against Echinochloa crus-galli (barnyard grass) assessed as killing at 500 g/ha pre-emergence application upland paddy conditions measured after 14 days. In kind it is functional.
The subject of data set [5] is Echinochloa oryzicola. Nature of the data set: Herbicidal activity against Echinochloa oryzicola assessed as killing at 50 g/ha pre-emergence application under paddy conditions. The format is functional.
Data set [6] in a line: Herbicidal activity against broadleaf weed assessed as killing at 50 g/ha pre-emergence application under paddy conditions. The format is functional.
Data set [7] deals with Zea mays. Nature of the data set: Herbicidal activity against Zea mays (maize)assessed as killing at 500 g/ha pre-emergence application upland paddy conditions measured after 14 days. The format is functional.
Data set [8] concerns Oryza sativa. Nature of the data set: Toxicity in Oryza sativa (rice) assessed as injury at 50 g/ha pre-emergence application under paddy conditions by crop safety assay. The format is organism-based. The note with it: in vivo, other.
Data set [9] can be described thus: Octanol-water partition coefficient, log K of the compound. The format is physicochemical. To be noted: read-out: log K.
Data set [10] concerns Schoenoplectiella juncoides. The data set can be described thus: Herbicidal activity against Schoenoplectiella juncoides assessed as killing at 50 g/ha pre-emergence application under paddy conditions. The format is functional.
Data set [11] deals with Echinochloa oryzicola. Nature of the data set: Herbicidal activity against Echinochloa oryzicola assessed as killing pre-emergence application under paddy conditions. The format is functional.

`CCCC(C(=O)OC)S(=O)(=O)c1ncn(C(=O)N(CC)CC)n1` (centres undefined): the Activity was found to be 100% in data set [1]; 100% in data set [2]; 60% in data set [3]; 100% in [4]; 100% in data set [5]; 60% in [6]. Also, the Activity in data set [7] amounted to 50%; in data set [8] it was 10%; in data set [10], 60%. The logP in data set [9] is 0.58. Also, the “log(1/ED80)” value in data set [11] stood at 1.14.
As for `CCN(CC)C(=O)n1cnc(S(=O)(=O)C(C)C(=O)OC)n1` (centres undefined), the Activity in data set [1] came to 60%; in data set [2], 80%; in data set [3], 10%; in data set [4], 60%; in [5], 10%; in data set [6], 10%. Also, the figures for the Activity in [7], in [8] and in [10] were 20%, 10% and 10%, respectively. In data set [9], the logP is 0.41. The “log(1/ED80)” value in data set [11] was -0.1.
For the compound `CCN(CC)C(=O)n1cnc(S(=O)(=O)C(C(=O)OC)C2CC2)n1` (centres undefined), the Activity in [1] is 80%; in data set [2] it was 100%; in data set [3], 10%; in data set [4], 90%; in [5], 10%; in data set [6], 10%. For the same compound, the Activity in [7] was 20%; in [8], 10%; in data set [10], 10%. The logP in data set [9] amounted to 0.47. Moreover, in data set [11], the “log(1/ED80)” value is reported as 0.24.
In the case of `CCC(C)CC(C(=O)OC)S(=O)(=O)c1ncn(C(=O)N(CC)CC)n1` (centres undefined), the Activity in [1] was 100%; in data set [2] it was 90%; in data set [3], 40%; in data set [4], 90%; in data set [5] it was 90%; in [6] it was 80%. Further, the Activity in data set [7] turned out to be 20%; in data set [8], 10%; in data set [10] it was 80%. In addition, in [9], the logP was 0.79. Besides, the “log(1/ED80)” value in data set [11] turned out to be 0.99.
Take `CCN(CC)C(=O)n1cnc(S(=O)(=O)C(C(=O)OC)C(C)C)n1` (centres undefined): the Activity in data set [1] stood at 90%; in [2], 90%; in data set [3], 100%; in [4], 80%; in [5], 100%; in data set [6] it was 90%. In addition, the values for the Activity in data set [7], in [8] and in data set [10] were 30%, 40% and 100%, respectively. The logP in data set [9] came to 0.56. In addition, the “log(1/ED80)” value in data set [11] came to 1.24.
As to `CC(C)CC(C(=O)OC(C)C)S(=O)(=O)c1ncn(C(=O)N(C)C)n1` (centres undefined), the Activity in [3] is 10%; in data set [5] it was 60%; in data set [6], 40%; in data set [10], 10%.
Regarding `CC(C)CC(C(=O)OC(C)C)S(=O)(=O)c1ncn(C(=O)N(C)c2ccccc2)n1` (centres undefined), the Activity in data set [3] worked out at 10%; in data set [5], 20%; in data set [6], 40%; in data set [10], 10%.
For the compound `CCC(C(=O)OC)S(=O)(=O)c1ncn(C(=O)N(CC)CC)n1` (centres undefined), the Activity amounted to 40% in data set [1]; 50% in [2]; 10% in [3]; 60% in data set [4]; 60% in [5]; 10% in data set [6]. The Activity is given as 30% in data set [7], 10% in data set [8] and 10% in data set [10]. Besides, in data set [9], the logP was determined as 0.49. Moreover, the “log(1/ED80)” value in data set [11] was found to be 0.74.
As for `C=CC(C)C(C(=O)OC)S(=O)(=O)c1ncn(C(=O)N(CC)CC)n1` (centres undefined), the Activity in data set [1] was found to be 90%; in data set [2] it was 90%; in data set [3], 10%; in data set [4], 90%; in data set [5], 60%; in data set [6] it was 10%. Moreover, the Activity in data set [7] stood at 70%; in [8] it was 10%; in [10], 10%. The logP in [9] stood at 0.63. Moreover, the “log(1/ED80)” value in data set [11] is recorded as 0.65.
As for `CCN(CC)C(=O)C(CC(C)C)S(=O)(=O)c1ncn(C(=O)N(CC)CC)n1` (centres undefined), the Activity in [3] stood at 10%; in data set [5], 10%; in data set [6], 10%; in [8] it was 20%; in data set [10] it was 10%.
For the compound `CCN(CC)C(=O)n1cnc(S(=O)(=O)C(CC(=O)OC)C(=O)OC)n1` (centres undefined), the Activity in data set [1] was 30%; in data set [2], 60%; in data set [3], 10%; in data set [4] it was 50%; in [5], 10%; in [6] it was 10%. Further, the Activity in data set [7], in [8] and in data set [10] was 10% in each case. In data set [9], the logP is 0.45. Besides, in data set [11], the “log(1/ED80)” value is -0.04.
On to `C=C(C)CC(C(=O)OC)S(=O)(=O)c1ncn(C(=O)N(CC)CC)n1` (centres undefined), for which the Activity amounted to 100% in [1]; 100% in data set [2]; 100% in [3]; 100% in data set [4]; 90% in [5]; 90% in data set [6]. Besides, the Activity is recorded as 40% in [7], 10% in data set [8] and 60% in data set [10]. In data set [9], the logP stood at 0.63. The “log(1/ED80)” value in [11] worked out at 0.95.
As for `CCN(CC)C(=O)n1cnc(S(=O)(=O)C(CC2CC2)C(=O)OC)n1` (centres undefined), the Activity in data set [1] amounted to 100%; in data set [2], 90%; in [3], 100%; in data set [4], 90%; in data set [5], 100%; in data set [6], 90%. Besides, the Activity is 60% in data set [7], 10% in data set [8] and 60% in data set [10]. In data set [9], the logP stood at 0.6. Also, the “log(1/ED80)” value in [11] worked out at 0.95.
In the case of `CCN(CC)C(=O)n1cnc(S(=O)(=O)CCC(C)C)n1`, the Activity turned out to be 10% in [3]; 100% in [5]; 50% in data set [6]; 10% in data set [8]; 10% in [10].
`CCN(CC)C(=O)n1cnc(S(=O)(=O)C(CC2CCCCC2)C(=O)OC)n1` (centres undefined): the Activity in data set [1] came to 40%; in data set [2], 10%; in [3], 10%; in [4], 40%; in data set [5] it was 100%; in data set [6], 50%. The results for the Activity in data set [7], in data set [8] and in data set [10] were 20%, 10% and 10%, respectively. The logP in data set [9] is 0.94. Besides, the “log(1/ED80)” value in [11] was found to be 1.2.
`CCN(CC)C(=O)n1cnc(S(=O)(=O)C(CCCC#N)C(=O)OC)n1` (centres undefined): the Activity in data set [1] came out at 90%; in data set [2] it was 90%; in data set [3], 10%; in data set [4] it was 90%; in [5], 10%; in data set [6] it was 10%. In addition, the Activity turned out to be 70% in [7], 10% in [8] and 10% in [10]. Moreover, in [9], the logP was found to be 0.41. Besides, in [11], the “log(1/ED80)” value is given as 0.05.
For `CCN(CC)C(=O)n1cnc(S(=O)(=O)C(C(=O)OC)C2CCCC2)n1` (centres undefined), the Activity is 90% in data set [1]; 90% in data set [2]; 100% in data set [3]; 90% in [4]; 100% in [5]; 90% in data set [6]. The Activity in [7] was 80%; in data set [8], 10%; in data set [10] it was 100%. Also, the logP in data set [9] stood at 0.69. Further, the “log(1/ED80)” value in [11] turned out to be 1.27.
On to `CC(C)CC(C(=O)OC(C)C)S(=O)(=O)c1ncn(C(=O)N(C)C2CCCCC2)n1` (centres undefined), for which the Activity in [3] was 10%; in data set [5], 30%; in [6], 50%; in data set [10], 10%.
As for `CC(C)CC(C(=O)OC(C)C)S(=O)(=O)c1ncn(C(=O)N(C(C)C)C(C)C)n1` (centres undefined), the Activity in data set [3] came out at 10%; in [5], 60%; in data set [6] it was 60%; in [10] it was 30%.
With `CCN(CC)C(=O)n1cnc(S(=O)(=O)C(Cc2ccccc2)C(=O)OC)n1` (centres undefined), the Activity in [1] came to 30%; in data set [2], 10%; in data set [3], 10%; in [4], 10%; in data set [5] it was 50%; in data set [6], 10%. The Activity in data set [7], in data set [8] and in data set [10] was 10% throughout. For the same compound, the logP in data set [9] is 0.69. In data set [11], the “log(1/ED80)” value is reported as 0.6.
Regarding `CC(C)CC(C(=O)OC(C)C)S(=O)(=O)c1ncn(C(=O)N2CCCC2)n1` (centres undefined), the Activity in data set [3] was 10%; in data set [5], 40%; in data set [6], 30%; in [8], 10%; in data set [10], 10%.
Turning to `CC(C)CC(C(=O)OC(C)C)S(=O)(=O)c1ncn(C(=O)N2CCOCC2)n1` (centres undefined), the Activity in data set [3], in data set [5], in data set [6] and in data set [10] was 10% in each case.
